Measured values: US9023847B2, “Azaheterocyclic compounds” (Merck Patent GmbH, priority 2009, dated 2015)
pIC50: −log10 of the molar value.

Biological target: T1, P70S6K (T412E mutant, Millipore) (Homo sapiens, UniProt P23443, T412E)
T1 construct: purchased Millipore
Assay: p70S6K enzyme assay
Assay type: biochemical
Details: Table 1; 3 nM P70S6K, 24 μM ATP, 90 min at 25° C.; read-out: p70S6K inhibition (IC50)
Experimental: P70S6K inhibitor compounds are diluted and plated in 96 well plates. A reaction mixture including the following components is then added to the compound plate to initiate the enzyme reaction; P70S6K (3 nM, T412E mutant, Millipore) is mixed with 24 μM ATP in an assay buffer containing 100 mM Hepes (pH 7.5), 5 mM MgCl2, 1 mM DTT, 0.015% Brij and 1 μM of the substrate peptide FITC-AHA-AKRRRLSSLRA-OH (derived from the S6 ribosomal protein sequence, FITC=fluorescein isothiocyanate, AHA=6-aminohexanoic acid). The reaction is incubated for 90 min at 25° C., before the addition of 10 mM EDTA to stop the reaction. The proportion of substrate and product (phosphorylated) peptide is analysed on a Caliper Life Sciences Lab Chip 3000, using a pressure of −1.4 psi, and upstream and downstream voltages of −3000 and −700 respectively. Product peaks are resolved before substrate peaks on the resulting chromatograms.

T1 sequence (P23443 whole entry T412E): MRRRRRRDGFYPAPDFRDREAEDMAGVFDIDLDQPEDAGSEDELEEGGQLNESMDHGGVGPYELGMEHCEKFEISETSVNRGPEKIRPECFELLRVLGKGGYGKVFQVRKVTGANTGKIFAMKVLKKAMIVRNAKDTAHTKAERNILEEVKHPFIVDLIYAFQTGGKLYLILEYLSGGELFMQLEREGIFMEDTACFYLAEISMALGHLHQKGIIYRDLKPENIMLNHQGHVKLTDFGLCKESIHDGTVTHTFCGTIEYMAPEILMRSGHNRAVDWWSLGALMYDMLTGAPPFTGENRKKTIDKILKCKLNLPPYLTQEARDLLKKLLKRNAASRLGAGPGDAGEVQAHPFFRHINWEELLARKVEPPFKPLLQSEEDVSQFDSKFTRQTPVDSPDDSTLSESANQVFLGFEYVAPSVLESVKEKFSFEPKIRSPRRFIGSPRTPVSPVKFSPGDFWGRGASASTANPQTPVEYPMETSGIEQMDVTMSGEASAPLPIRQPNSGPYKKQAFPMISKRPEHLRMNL

| pIC50 | Structure (SMILES) |
| --- | --- |
| 6.00 to 7.00 | CNCCNC(=O)c1sccc1Nc1ncnc2[nH]ccc12 [Example 153, 3-(7H-Pyrrolo[2,3-d]pyrimidin-4-ylamino)-thiophene-2-carboxylic acid (2-methylamino-ethyl)-amide] |
| 5.00 to 6.00 | CC(C)(C)OC(=O)N1CCC(NC(=O)c2sccc2Nc2ccnc3[nH]ccc23)C1 (stereo not drawn) [Example 156, 3-{[3-(1H-Pyrrolo[2,3-b]pyridin-4-ylamino)-thiophene-2-carbonyl]-amino}-pyrrolidine-1-carboxylic acid tert-butyl ester] |
| 5.00 to 6.00 | CC(C)(C)OC(=O)N(CCNC(=O)c1occc1Nc1ncnc2[nH]ccc12)Cc1ccccc1 [Example 157, Benzyl-(2-{[3-(7H-pyrrolo[2,3-d]pyrimidin-4-ylamino)-furan-2-carbonyl]-amino}-ethyl)-carbamic acid tert-butyl ester] |

Same assay, conditions: class symbol; 3 nM P70S6K, 24 μM ATP; read-out: IC50 (p70S6K)

| pIC50 | Structure (SMILES) |
| --- | --- |
| > 7.00 | Cc1ccccc1CCNC(=O)c1sccc1Nc1ccnc2[nH]ccc12 [Example 25, 3-(1H-Pyrrolo[2,3-b]pyridin-4-ylamino)-thiophene-2-carboxylic acid (2-o-tolyl-ethyl)-amide] |
| > 7.00 | COc1ccc(CCNC(=O)c2sccc2Nc2ccnc3[nH]ccc23)cc1 [Example 28, 3-(1H-Pyrrolo[2,3-b]pyridin-4-ylamino)-thiophene-2-carboxylic acid [2-(4-methoxy-phenyl)-ethyl]-amide] |
| > 7.00 | O=C(Nc1ccc(F)cc1)c1sccc1Nc1ccnc2[nH]ccc12 [Example 37, 3-(1H-Pyrrolo[2,3-b]pyridin-4-ylamino)-thiophene-2-carboxylic acid (4-fluoro-phenyl)-amide] |

The next lines start with the compound.

| Structure (SMILES) | pIC50 |
| --- | --- |
| COc1cccc([C@@H](CN)NC(=O)c2sccc2Nc2ccnc3[nH]ccc23)c1 (stereo in doubt) [Example 123, 3-(1H-Pyrrolo[2,3-b]pyridin-4-ylamino)-thiophene-2-carboxylic acid [2-amino-1-(3-methoxy-phenyl)-ethyl]-amide] | > 7.00 |
| O=C(NC(CO)C(=O)NCc1ccccc1)c1sccc1Nc1ccnc2[nH]ccc12 (stereo not drawn) [Example 88, 3-(1H-Pyrrolo[2,3-b]pyridin-4-ylamino)-thiophene-2-carboxylic acid (1-benzylcarbamoyl-2-hydroxy-ethyl)-amide] | 6.00 to 7.00 |
| O=C(N[C@H](CO)Cc1ccccc1)c1sccc1Nc1ccnc2[nH]ccc12 [Example 86, 3-(1H-Pyrrolo[2,3-b]pyridin-4-ylamino)-thiophene-2-carboxylic acid ((S)-1-benzyl-2-hydroxy-ethyl)-amide] | > 7.00 |
| CC(NCCNC(=O)c1sccc1Nc1ccnc2[nH]ccc12)c1ccccc1 (stereo not drawn) [Example 131, 3-(1H-Pyrrolo[2,3-b]pyridin-4-ylamino)-thiophene-2-carboxylic acid [2-(1-phenyl-ethylamino)-ethyl]-amide] | > 7.00 |
| O=C(NCCc1ccccn1)c1sccc1Nc1ccnc2[nH]ccc12 [Example 19, 3-(1H-Pyrrolo[2,3-b]pyridin-4-ylamino)-thiophene-2-carboxylic acid (2-pyridin-2-yl-ethyl)-amide] | 6.00 to 7.00 |
| O=C(NC1CCCNC1)c1sccc1Nc1ccnc2[nH]ccc12 (stereo not drawn) [Example 9, 3-(1H-Pyrrolo[2,3-b]pyridin-4-ylamino)-thiophene-2-carboxylic acid piperidin-3-ylamide] | 6.00 to 7.00 |
| NCCCNC(=O)c1sccc1Nc1ccnc2[nH]ccc12 [Example 67, 3-(1H-Pyrrolo[2,3-b]pyridin-4-ylamino)-thiophene-2-carboxylic acid (3-amino-propyl)-amide] | 6.00 to 7.00 |
| CC(C)(C)OC(=O)N1CCC[C@@H]1CNC(=O)c1sccc1Nc1ccnc2[nH]ccc12 [Example 92, (R)-2-({[3-(1H-Pyrrolo[2,3-b]pyridin-4-ylamino)-thiophene-2-carbonyl]-amino}methyl)pyrrolidine-1-carboxylic acid tert-butyl ester] | 6.00 to 7.00 |
| O=C(c1sccc1Nc1ccnc2[nH]ccc12)N1CCC(NCc2ccccc2)CC1 [Example 65, (4-Benzylamino-piperidin-1-yl)-[3-(1H-pyrrolo[2,3-b]pyridin-4-ylamino)-thiophen-2-yl]-methanone] | 5.00 to 6.00 |
